These results are taken from article PMC9789040, “Inhibition of triple negative breast cancer-associated inflammation and progression by N- acylethanolamine acid amide hydrolase (NAAA)” (Scientific Reports, 2022).

One may read the IC50 as the midpoint of a concentration-inhibition curve. The low end stands for higher potency, the high end for lower potency.

The test deals with T1, N-acylethanolamine acid amidase (NAAA) (Homo sapiens, UniProt Q02083).
T1 construct: purified human NAAA
T1 sequence (Q02083 29-125): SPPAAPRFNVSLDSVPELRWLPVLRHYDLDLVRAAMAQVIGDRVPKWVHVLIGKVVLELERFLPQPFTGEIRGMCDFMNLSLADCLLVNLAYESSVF
T1 sequence (Q02083 126-359): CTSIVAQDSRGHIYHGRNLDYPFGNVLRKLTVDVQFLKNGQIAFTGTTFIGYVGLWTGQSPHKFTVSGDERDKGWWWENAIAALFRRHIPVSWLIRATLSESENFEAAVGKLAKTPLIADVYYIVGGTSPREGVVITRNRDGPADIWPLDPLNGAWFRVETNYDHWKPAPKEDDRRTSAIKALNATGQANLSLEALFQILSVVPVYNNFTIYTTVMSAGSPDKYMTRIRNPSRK
The test is described as follows: fluorogenic PAMCA hydrolysis assay with purified human NAAA, […] min preincubation, 8-point curve. Type of test: biochemical.

Molecules are shown by their SMILES.

For the molecule `COc1ccc(-c2ccc(COC3CC(N=C=S)C3)nc2)cc1F` (stereo not shown) [AM11095], 0.02 µM corresponded to half-maximal inhibition (IC50).
